Source: patent publication US20180015100A1, “COMBINATION PRODUCTS FOR THE TREATMENT OF BACTERIAL INFECTIONS AND METHODS OF PRODUCING OR DOSING OF SAME” (priority 2016, published 2018)
pIC50: −log10 of the molar value. Where two headings read alike, the source gives them in different places. Marks after values point to notes of the source that are not given here.

Columns and labels:
[1] = test system: 13 Enterobacteriaceae isolates; type: cell-based; conditions: with clavulanate 2:1
[2] = cited from earlier work; for bioavailability / fCmax: po
[3] = cited from earlier work
[4] = test system: ESBL-producing Enterobacteriaceae isolates (panel of nineteen); assay: MIC of cephalosporins alone or with clavulanate/tazobactam, whole panel; type: cell-based; conditions: cephalosporin alone; 19 isolates
[5] = test system: Citrobacter freundii isolates; assay: MIC of cephalosporins alone or with clavulanate/tazobactam; type: cell-based; conditions: clavulanate 2:1, tazobactam 4 μg/mL
[6] = test system: Enterobacter aerogenes isolates; assay: as above; type: cell-based; conditions: Klebsiella aerogenes, clavulanate 2:1, tazobactam 4 μg/mL
[7] = test system: Enterobacter cloacae isolates; assay: as above; type: cell-based; conditions: clavulanate 2:1, tazobactam 4 μg/mL
[8] = test system: Escherichia coli isolates; assay: as above; type: cell-based; conditions: clavulanate 2:1, tazobactam 4 μg/mL
[9] = test system: Klebsiella oxytoca isolates; assay: as above; type: cell-based; conditions: clavulanate 2:1, tazobactam 4 μg/mL
[10] = test system: Klebsiella pneumoniae isolates; assay: as above; type: cell-based; conditions: clavulanate 2:1, tazobactam 4 μg/mL
[11] = test system: 385 Escherichia coli and 126 Klebsiella pneumoniae isolates; assay: MIC, MIC50 and MIC90 by reference broth microdilution against 511 UTI/bloodstream isolates (USA and Europe 2014-2015); type: cell-based; conditions: 511 isolates
[12] = molecular target: CTX-M-15 (Escherichia coli, UniProt Q9EXV5); assay: Competition assay with nitrocefin (IC50); type: biochemical
Chain of CTX-M-15 (Q9EXV5 entry or part of it): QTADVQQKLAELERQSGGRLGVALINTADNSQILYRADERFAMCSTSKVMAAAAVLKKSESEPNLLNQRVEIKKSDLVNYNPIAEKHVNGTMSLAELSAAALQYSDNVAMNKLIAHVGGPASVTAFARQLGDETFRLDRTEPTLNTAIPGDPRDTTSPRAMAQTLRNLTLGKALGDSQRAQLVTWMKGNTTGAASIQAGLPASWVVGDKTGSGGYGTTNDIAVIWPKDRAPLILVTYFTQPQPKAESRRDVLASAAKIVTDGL

[13] = test system: AECO001; assay: MIC of cephalosporins (Table 16); type: cell-based
[14] = test system: CTX-M-15 Strain; assay: MIC of cephalosporins without and with CLV (Table 16); type: cell-based; conditions: for MIC: read-out: MIC CTX-M-15 Strain − CLV; for MIC CTX-M-15 Strain + CLV: with CLV
[15] = test system: C=CC1=C(C(=O)O)N2C(=O)[C@@H](NC(=O)/C(=N\OCC(=O)O)c3csc(N)n3)[C@H]2SC1; assay: purified protein, by the assay type; conditions: other: CTX-M-15-mediated hydrolysis; pH 7.0
[16] = test system: COCC1=C(C(=O)O)N2C(=O)[C@@H](NC(=O)/C(=N\OC)c3csc(N)n3)[C@H]2SC1; assay: purified protein, by the assay type; conditions: other: CTX-M-15-mediated hydrolysis; pH 7.0

Molecule: CO/N=C(\C(=O)N[C@@H]1C(=O)N2C(C(=O)O)=C(/C=C\c3scnc3C)CS[C@H]12)c1csc(N)n1 [Cefditoren, cefditoren]
- MICs range against ESBL+ isolates (Table 3) [1]: 0.12 to 2 µg/mL
- Mean Cmax ([2]; in vivo, 200 mg): 1800 ng/mL
- Mean fCmax ([2]; in vivo, 200 mg): 0.22 µg/mL
- bioavailability ([2]; in vivo): 14%
- Mean unbound plasma concentration following one elimination half-life ([2]; in vivo): 0.11 µg/mL
- peak free drug concentrations ([2]; in vivo): ≤ 0.3 µg/mL
- Protein binding (% bound) ([3]; plasma): 88 (plasma) % bound

Molecule: CO/N=C(\C(=O)N[C@@H]1C(=O)N2C(C(=O)[O-])=C(C[N+]3(C)CCCC3)CS[C@H]12)c1csc(N)n1 [Cefepime, cefepime]
- ESBL-producing isolates with MIC<8 μg/mL [4]: 4 of 19
- MIC ([5]; ACFR1034 (CTX-M-15, TEM-OSBL)): > 32 µg/mL
- MIC ([5]; ACFR1035 (CTX-M-3, TEM-OSBL)): > 32 µg/mL
- MIC ([6]; AEAE1027 (CTX-M-14)): 8 µg/mL
- MIC ([6]; AEAE1029 (CTX-M-15)): > 32 µg/mL
- MIC ([7]; AECL1065 (CTX-M-15)): > 32 µg/mL
- MIC ([7]; AECL1067 (CTX-M-3)): > 32 µg/mL
- MIC ([8]; AECO001 (no ESBL)): ≤ 0.031 µg/mL
- MIC ([8]; AECO1078 (CTX-M-15)): > 32 µg/mL
- MIC ([8]; AECO1147 (CTX-M-15)): 4 µg/mL
- MIC ([8]; AECO1157 (CTX-M-15, TEM-OSBL)): 32 µg/mL
- MIC ([8]; AECO1159 (CTX-M-15)): > 32 µg/mL
- MIC ([8]; AECO1169 (CTX-M-1, TEM-OSBL)): > 32 µg/mL
- MIC ([8]; AECO1172 (CTX-M-14)): > 32 µg/mL
- MIC ([9]; AKOX1005 (SHV-2, TEM-1, DHA-1)): 0.25 µg/mL
- MIC ([9]; AKOX1009 (CTX-M-15)): 32 µg/mL
- MIC ([10]; AKPN1159 (SHV-12)): 2 µg/mL
- MIC ([10]; AKPN1161 (SHV-7)): 1 µg/mL
- MIC ([10]; AKPN1162 (CTX-M-15, SHV-12)): > 32 µg/mL
- MIC ([10]; AKPN1166 (CTX-M-14, SHV-12)): 4 µg/mL
- MIC ([10]; AKPN1167 (SHV-2)): 8 µg/mL
- MIC50 [11]: > 16 µg/mL
- EUCAST % I ([11]; EUCAST 2016 criteria): 10.0%
- MIC90 ([11]; read-out: MIC90): > 16 µg/mL

Molecule: C=CC1=C(C(=O)O)N2C(=O)[C@@H](NC(=O)/C(=N\OCC(=O)O)c3csc(N)n3)[C@H]2SC1 [Cefixime, cefixime]
- MIC ([5]; ACFR1034 (CTX-M-15, TEM-OSBL)): > 64 µg/mL
- MIC ([5]; ACFR1035 (CTX-M-3, TEM-OSBL)): > 64 µg/mL
- MIC ([6]; AEAE1027 (CTX-M-14)): 8 µg/mL
- MIC ([6]; AEAE1029 (CTX-M-15)): > 64 µg/mL
- MIC ([7]; AECL1065 (CTX-M-15)): > 64 µg/mL
- MIC ([7]; AECL1067 (CTX-M-3)): > 64 µg/mL
- MIC ([8]; AECO001 (no ESBL)): 1 µg/mL
- MIC ([8]; AECO1078 (CTX-M-15)): > 64 µg/mL
- MIC ([8]; AECO1157 (CTX-M-15, TEM-OSBL)): > 64 µg/mL
- MIC ([8]; AECO1159 (CTX-M-15)): > 64 µg/mL
- MIC ([8]; AECO1169 (CTX-M-1, TEM-OSBL)): 16 µg/mL
- MIC ([8]; AECO1172 (CTX-M-14)): 16 µg/mL
- MIC ([9]; AKOX1005 (SHV-2, TEM-1, DHA-1)): 16 µg/mL
- MIC ([9]; AKOX1009 (CTX-M-15)): > 64 µg/mL
- MIC ([10]; AKPN1159 (SHV-12)): 32 µg/mL
- MIC ([10]; AKPN1161 (SHV-7)): 32 µg/mL
- MIC ([10]; AKPN1162 (CTX-M-15, SHV-12)): > 64 µg/mL
- MIC ([10]; AKPN1166 (CTX-M-14, SHV-12)): > 64 µg/mL
- MIC ([10]; AKPN1167 (SHV-2)): 8 µg/mL
- pIC50 [12]: 4.70
- MIC [13]: 1 µg/mL
- MIC [14]: > 64 µg/mL
- MIC CTX-M-15 Strain + CLV [14]: 2 µg/mL
- Mean unbound plasma concentration following one elimination half-life ([2]; for highest plasma concentration from previous row): 0.65 (400 mg) μg/mL
- Mean Cmax ([2]; in vivo, 200 mg): 2000 ng/mL
- Mean fCmax ([2]; in vivo, 200 mg): 0.7 µg/mL
- Mean Cmax ([2]; in vivo, 400 mg): 3700 ng/mL
- Mean fCmax ([2]; in vivo, 400 mg): 1.3 µg/mL
- bioavailability ([2]; in vivo): 40-90%
- fCmax ([2]; in vivo): 2.7 µg/mL
- Elimination half-life ([2]; plasma): 3-4^b h
- Protein binding (% bound) ([3]; serum): 65 (serum) % bound

Molecule: CO/N=C(\C(=O)N[C@@H]1C(=O)N2C(C(=O)O)=C(COC(C)=O)CS[C@H]12)c1csc(N)n1 [Cefotaxime, cefotaxime]
- pIC50 [12]: 4.51
- MIC [13]: 0.125 µg/mL

Molecule: COCC1=C(C(=O)O)N2C(=O)[C@@H](NC(=O)/C(=N\OC)c3csc(N)n3)[C@H]2SC1 [Cefpodoxime, cefpodoxime]
- MIC ([5]; ACFR1034 (CTX-M-15, TEM-OSBL)): > 64 µg/mL
- MIC ([5]; ACFR1035 (CTX-M-3, TEM-OSBL)): > 64 µg/mL
- MIC ([6]; AEAE1027 (CTX-M-14)): > 64 µg/mL
- MIC ([6]; AEAE1029 (CTX-M-15)): > 64 µg/mL
- MIC ([7]; AECL1065 (CTX-M-15)): > 64 µg/mL
- MIC ([7]; AECL1067 (CTX-M-3)): > 64 µg/mL
- MIC ([8]; AECO001 (no ESBL)): 0.5 µg/mL
- MIC ([8]; AECO1078 (CTX-M-15)): > 64 µg/mL
- MIC ([8]; AECO1147 (CTX-M-15)): > 64 µg/mL
- MIC ([8]; AECO1157 (CTX-M-15, TEM-OSBL)): > 64 µg/mL
- MIC ([8]; AECO1159 (CTX-M-15)): > 64 µg/mL
- MIC ([8]; AECO1169 (CTX-M-1, TEM-OSBL)): > 64 µg/mL
- MIC ([8]; AECO1172 (CTX-M-14)): > 64 µg/mL
- MIC ([9]; AKOX1005 (SHV-2, TEM-1, DHA-1)): 32 µg/mL
- MIC ([9]; AKOX1009 (CTX-M-15)): > 64 µg/mL
- MIC ([10]; AKPN1159 (SHV-12)): 64 µg/mL
- MIC ([10]; AKPN1161 (SHV-7)): 16 µg/mL
- MIC ([10]; AKPN1162 (CTX-M-15, SHV-12)): > 64 µg/mL
- MIC ([10]; AKPN1166 (CTX-M-14, SHV-12)): > 64 µg/mL
- MIC ([10]; AKPN1167 (SHV-2)): > 64 µg/mL
- pIC50 [12]: 4.62
- MIC [13]: 0.5 µg/mL
- MIC [14]: > 64 µg/mL
- MIC CTX-M-15 Strain + CLV [14]: 4 µg/mL
- Mean Cmax ([2]; in vivo, 100 mg): 1400 ng/mL
- Mean fCmax ([2]; in vivo, 100 mg): 1.1 µg/mL
- Mean Cmax ([2]; in vivo, 200 mg): 2300 ng/mL
- Mean fCmax ([2]; in vivo, 200 mg): 1.8 µg/mL
- Mean Cmax ([2]; in vivo, 400 mg): 3900 ng/mL
- half-life ([2]; in vivo, 800 mg): 2.9 h
- fCmax ([2]; in vivo, 800 mg): approximately 5.4 μg/mL
- bioavailability ([2]; in vivo): 40-90%
- Elimination half-life ([2]; in vivo): 2.1 to 2.8 h
- Mean unbound plasma concentration following one elimination half-life ([2]; in vivo): 1.55 (400 mg) μg/mL
- Protein binding (% bound) ([3]; plasma): 21-29 (plasma) % bound
- Protein binding (% bound) ([3]; serum): 22-33 (serum); % bound

Molecule: CTX-M-15 (Escherichia coli)
- Km [15]: 14 (11-18) μM
- kcat [15]: 2 s⁻¹
- kcat/Km [15]: 140000 M⁻¹ s⁻¹
- Km [16]: 13 (10-16) μM
- kcat [16]: 50 s⁻¹
- kcat/Km [16]: 3.8e+06 M⁻¹ s⁻¹
